This experiment concerns the target Sigma non-opioid intracellular receptor 1 (Cavia porcellus) (UniProt Q60492). Kind of experiment: In vitro binding affinity towards Sigma receptor type 1 was determined by measuring its ability to displace [3H](+)-pentazocine from guinea pig brain membrane.

Chain of Sigma non-opioid intracellular receptor 1 (Cavia porcellus) (Q60492 whole entry, looked up): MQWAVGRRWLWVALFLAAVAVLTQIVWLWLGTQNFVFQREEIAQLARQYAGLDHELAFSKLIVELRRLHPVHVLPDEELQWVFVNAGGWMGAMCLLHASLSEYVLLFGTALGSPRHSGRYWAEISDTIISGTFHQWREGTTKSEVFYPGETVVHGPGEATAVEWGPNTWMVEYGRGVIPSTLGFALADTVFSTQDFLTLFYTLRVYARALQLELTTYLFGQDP

With `CN1CCC=C(c2nsnc2SCCF)C1`, the affinity, expressed as Ki, was 0.0217 µM.

`CN1CCC=C(c2nsnc2SCCCF)C1` had a Ki of 0.0621 µM.

For orientation: Ki means a dissociation constant, usually derived from enzyme kinetics or from competition with a known ligand. A low value points to a stronger hold on the target.

Values taken from BindingDB's records for doi:10.1021/jm00001a002 (National Institutes of Health, 1995).
